How the values were obtained:
[1] = tested on: barnyardgrass; assay: Test C preemergence; assay type: in vivo, Echinochloa crus-galli; conditions: preemergence; for Plant response rating, Barnyardgrass: 125 g ai/ha, scale 0 to 100, 0 = no effect, 100 = complete control
How it was run: (§1)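 Herbicidal effect is expressed as percent visual control (0–100) judged against untreated plants 13 to 15 days after treatment in the greenhouse. Preemergence pots contained seeds in a soil–sand blend; postemergence plants, 2–18 cm tall, grew in peat-based planting medium.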

[2] = tested on: corn; assay: Test C preemergence; assay type: in vivo, Zea mays; conditions: preemergence; for Plant response rating, Corn: 125 g ai/ha, scale 0 to 100, 0 = no effect, 100 = complete control
How it was run: as §1

[3] = tested on: pigweed; assay: Test A postemergence; assay type: in vivo, Amaranthus retroflexus; conditions: Postemergence
How it was run: (§2)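 Greenhouse test in loam soil/sand blend; compounds formulated in non-phytotoxic solvent with surfactant, applied as preemergence directed soil spray or postemergence to plants 2–10 cm tall at one- to two-leaf stage. Injury rated visually versus untreated controls after approximately 10 days on a 0 (no effect) to 100 (complete control) scale.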

[4] = tested on: wheat; assay: Test A preemergence; assay type: in vivo, Triticum aestivum; conditions: preemergence; for Wheat plant response rating (0 to 100 scale): 125 g ai/ha, visual injury approx. 10 days after treatment; for Wheat plant response rating: 500 g ai/ha, visual injury after approx. 10 days, 0 to 100 scale (0 no effect, 100 complete control)
How it was run: as §2

[5] = tested on: crabgrass, large; assay: Test A postemergence; assay type: in vivo, Digitaria sanguinalis
How it was run: as §2

[6] = tested on: crabgrass, large; assay: Test A preemergence; assay type: in vivo, Digitaria sanguinalis; conditions: preemergence; for Crabgrass, Large plant response rating (0 to 100 scale): 125 g ai/ha, visual injury approx. 10 days after treatment; for Crabgrass, Large plant response rating: 500 g ai/ha, visual injury after approx. 10 days, 0 to 100 scale (0 no effect, 100 complete control)
How it was run: as §2

[7] = tested on: oilseed rape; assay: Test C preemergence; assay type: in vivo, Brassica napus; conditions: preemergence; for Plant response rating, Oilseed Rape: 125 g ai/ha, scale 0 to 100, 0 = no effect, 100 = complete control
How it was run: as §1

[8] = tested on: wheat; assay: Test A postemergence; assay type: in vivo, Triticum aestivum; conditions: Postemergence
How it was run: as §2

[9] = tested on: velvetleaf; assay: Test A preemergence; assay type: in vivo, Abutilon theophrasti; conditions: preemergence; for Velvetleaf plant response rating (0 to 100 scale): 125 g ai/ha, visual injury approx. 10 days after treatment; for Velvetleaf plant response rating: 500 g ai/ha, visual injury after approx. 10 days, 0 to 100 scale (0 no effect, 100 complete control)
How it was run: as §2

[10] = tested on: velvetleaf; assay: Test C preemergence; assay type: in vivo, Abutilon theophrasti; conditions: preemergence; for Plant response rating, Velvetleaf: 125 g ai/ha, scale 0 to 100, 0 = no effect, 100 = complete control
How it was run: as §1

[11] = tested on: ragweed; assay: Test C preemergence; assay type: in vivo, Ambrosia elation; conditions: preemergence; for Plant response rating, Ragweed: 125 g ai/ha, scale 0 to 100, 0 = no effect, 100 = complete control
How it was run: as §1

[12] = tested on: blackgrass; assay: Test C preemergence; assay type: in vivo, Alopecurus myosuroides; conditions: preemergence; for Plant response rating, Blackgrass: 125 g ai/ha, scale 0 to 100, 0 = no effect, 100 = complete control
How it was run: as §1

[13] = tested on: barnyardgrass; assay: Test A preemergence; assay type: in vivo, Echinochloa crus-galli; conditions: preemergence; for Barnyardgrass plant response rating (0 to 100 scale, 0 is no effect, 100 is complete control): 125 g ai/ha, visual injury approx. 10 days after treatment; for Barnyardgrass plant response rating: 500 g ai/ha, visual injury after approx. 10 days, 0 to 100 scale (0 no effect, 100 complete control)
How it was run: as §2

[14] = tested on: johnsongrass; assay: Test C preemergence; assay type: in vivo, Sorghum halepense; conditions: preemergence; for Plant response rating, Johnsongrass: 125 g ai/ha, scale 0 to 100, 0 = no effect, 100 = complete control
How it was run: as §1

[15] = tested on: corn; assay: Test A preemergence; assay type: in vivo, Zea mays; conditions: preemergence; for Corn plant response rating (0 to 100 scale): 125 g ai/ha, visual injury approx. 10 days after treatment; for Corn plant response rating: 500 g ai/ha, visual injury after approx. 10 days, 0 to 100 scale (0 no effect, 100 complete control)
How it was run: as §2

[16] = tested on: wheat; assay: Test C preemergence; assay type: in vivo, Triticum aestivum; conditions: preemergence; for Plant response rating, Wheat: 125 g ai/ha, scale 0 to 100, 0 = no effect, 100 = complete control
How it was run: as §1

[17] = tested on: foxtail, giant; assay: Test C preemergence; assay type: in vivo, Setaria faberii; conditions: preemergence; for Plant response rating, Foxtail, Giant: 125 g ai/ha, scale 0 to 100, 0 = no effect, 100 = complete control
How it was run: as §1

[18] = 31 g ai/ha, visual rating, scale 0 to 100 (0 no effect, 100 complete control), 13 to 15 days
[19] = 62 g ai/ha, scale 0 to 100 (0 no effect, 100 complete control), 13 to 15 days
[20] = 250 g ai/ha, scale 0 to 100, 0 is no effect, 100 is complete control
[21] = 125 g ai/ha, 0 to 100 scale, 0 no effect, 100 complete control
[22] = 500 g ai/ha, 0 to 100 scale (0 no effect, 100 complete control)
[23] = Postemergence, 500 g ai/ha, 0 to 100 scale (0 no effect, 100 complete control)
[24] = postemergence, 125 g ai/ha, about 10 days, visual rating on 0 to 100 scale (0 no effect, 100 complete control)

CCCNC(=O)c1cc(CCC)n(Cc2cc(C(F)(F)F)nn2C)n1 [Compound 198]
Barnyardgrass plant response rating [1, 18]: 100
Barnyardgrass plant response rating [1, 19]: 100
Plant response rating, Barnyardgrass ([1]; 13 to 15 days): 100
Barnyardgrass plant response rating [1, 20]: 100
Corn plant response rating [2, 18]: 5
Corn plant response rating [2, 19]: 55
Plant response rating, Corn ([2]; 13 to 15 days): 85
Corn plant response rating [2, 20]: 98
Pigweed plant response rating [3, 21]: 100
Pigweed plant response rating [3, 22]: 100
Wheat plant response rating (0 to 100 scale) [4]: 60
Wheat plant response rating [4]: 100
Crabgrass, Large plant response rating [5, 23]: 100
Crabgrass, Large plant response rating [5, 24]: 90
Crabgrass, Large plant response rating (0 to 100 scale) [6]: 100
Crabgrass, Large plant response rating [6]: 100
Oilseed Rape plant response rating [7, 18]: 95
Oilseed Rape plant response rating [7, 19]: 100
Plant response rating, Oilseed Rape ([7]; 13 to 15 days): 100
Oilseed Rape plant response rating [7, 20]: 100
Wheat plant response rating [8, 21]: 60
Wheat plant response rating [8, 22]: 90
Velvetleaf plant response rating (0 to 100 scale) [9]: 30
Velvetleaf plant response rating [9]: 100
Velvetleaf plant response rating [10, 18]: 35
Velvetleaf plant response rating [10, 19]: 85
Plant response rating, Velvetleaf ([10]; 13 to 15 days): 100
Velvetleaf plant response rating [10, 20]: 100
Ragweed plant response rating [11, 18]: 60
Ragweed plant response rating [11, 19]: 85
Plant response rating, Ragweed ([11]; 13 to 15 days): 98
Ragweed plant response rating [11, 20]: 100
Blackgrass plant response rating [12, 18]: 85
Blackgrass plant response rating [12, 19]: 90
Plant response rating, Blackgrass ([12]; 13 to 15 days): 90
Blackgrass plant response rating [12, 20]: 90
Barnyardgrass plant response rating (0 to 100 scale, 0 is no effect, 100 is complete control) [13]: 100
Barnyardgrass plant response rating [13]: 100
Johnsongrass plant response rating [14, 18]: 25
Johnsongrass plant response rating [14, 19]: 80
Plant response rating, Johnsongrass ([14]; 13 to 15 days): 100
Johnsongrass plant response rating [14, 20]: 100
Corn plant response rating (0 to 100 scale) [15]: 0
Corn plant response rating [15]: 90
Wheat plant response rating [16, 18]: 5
Wheat plant response rating [16, 19]: 35
Plant response rating, Wheat ([16]; 13 to 15 days): 90
Wheat plant response rating [16, 20]: 90
Foxtail, Giant plant response rating [17, 18]: 98
Foxtail, Giant plant response rating [17, 19]: 100
Plant response rating, Foxtail, Giant ([17]; 13 to 15 days): 100
Foxtail, Giant plant response rating [17, 20]: 100

CCc1cc(C(=O)NC2CC2)nn1Cc1ccnc(OCC(F)(F)F)c1 [Compound 200]
Barnyardgrass plant response rating [1, 18]: 45
Barnyardgrass plant response rating [1, 19]: 70
Plant response rating, Barnyardgrass ([1]; 13 to 15 days): 90
Barnyardgrass plant response rating [1, 20]: 98
Corn plant response rating [2, 18]: 0
Corn plant response rating [2, 19]: 15
Plant response rating, Corn ([2]; 13 to 15 days): 35
Corn plant response rating [2, 20]: 80
Pigweed plant response rating [3, 21]: 100
Pigweed plant response rating [3, 22]: 100
Wheat plant response rating (0 to 100 scale) [4]: 0
Wheat plant response rating [4]: 100
Crabgrass, Large plant response rating [5, 23]: 100
Crabgrass, Large plant response rating [5, 24]: 100
Crabgrass, Large plant response rating (0 to 100 scale) [6]: 100
Crabgrass, Large plant response rating [6]: 100
Oilseed Rape plant response rating [7, 18]: 60
Oilseed Rape plant response rating [7, 19]: 95
Plant response rating, Oilseed Rape ([7]; 13 to 15 days): 98
Oilseed Rape plant response rating [7, 20]: 98
Wheat plant response rating [8, 21]: 40
Wheat plant response rating [8, 22]: 100
Velvetleaf plant response rating (0 to 100 scale) [9]: 20
Velvetleaf plant response rating [9]: 100
Velvetleaf plant response rating [10, 18]: 40
Velvetleaf plant response rating [10, 19]: 70
Plant response rating, Velvetleaf ([10]; 13 to 15 days): 100
Velvetleaf plant response rating [10, 20]: 100
Ragweed plant response rating [11, 18]: 5
Ragweed plant response rating [11, 19]: 35
Plant response rating, Ragweed ([11]; 13 to 15 days): 70
Ragweed plant response rating [11, 20]: 85
Blackgrass plant response rating [12, 18]: 50
Blackgrass plant response rating [12, 19]: 80
Plant response rating, Blackgrass ([12]; 13 to 15 days): 90
Blackgrass plant response rating [12, 20]: 90
Barnyardgrass plant response rating (0 to 100 scale, 0 is no effect, 100 is complete control) [13]: 90
Barnyardgrass plant response rating [13]: 100
Johnsongrass plant response rating [14, 18]: 50
Johnsongrass plant response rating [14, 19]: 80
Plant response rating, Johnsongrass ([14]; 13 to 15 days): 90
Johnsongrass plant response rating [14, 20]: 98
Corn plant response rating (0 to 100 scale) [15]: 60
Corn plant response rating [15]: 90
Wheat plant response rating [16, 18]: 0
Wheat plant response rating [16, 19]: 15
Plant response rating, Wheat ([16]; 13 to 15 days): 45
Wheat plant response rating [16, 20]: 75
Foxtail, Giant plant response rating [17, 18]: 75
Foxtail, Giant plant response rating [17, 19]: 85
Plant response rating, Foxtail, Giant ([17]; 13 to 15 days): 98
Foxtail, Giant plant response rating [17, 20]: 100

From patent publication US20150105252A1, “SUBSTITUTED PYRAZOLES AS HERBICIDES” (E I DU PONT DE NEMOURS AND COMPANY, priority 2013, published 2015)
